# Patent publication US12421243B2, “Pharmaceutically effective compounds inhibiting selectively the myosin 2 isoforms” (PRINTNET KERESKEDELMI ÉS SZOLGÁLTATÓ KFT., priority 2018, dated 2025)
# Legend:
# [1] = system: myosin 2; conditions: myosin 2 inhibitors, review data; cited from earlier work
# [2] = system: skeletal muscle myosin 2; conditions: cited from earlier work
# [3] = biological target: platelet myosin 2 (Homo sapiens, UniProt P35579); conditions: cited from earlier work
# [4] = biological target: recombinant Dictyostelium miozin (Dictyostelium) (Dictyostelium discoideum, UniProt P08799); experiment: actomyosin steady state ATPase measurement, Dictyostelium myosin; format: biochemical; conditions: for IC50: concentration required for semi-maximal inhibition of ATPase, read-out: IC50 (μM) Dicty; for inhibition at 5 µM: read-out: % inhibition at 5 μM (or 10 μM if racemate) Dicty; for inhibition at 50 µM: read-out: % inhibition at 50 μM (or 100 μM if racemate) Dicty
# Text: (§1) […]; (ii) the concentration required for semi-maximal inhibition.
# [5] = biological target: recombinant human non-muscle myosin 2 NM2A (Homo sapiens, UniProt P35579); experiment: actomyosin steady state ATPase measurement, NM2A; format: biochemical; conditions: for IC50: concentration required for semi-maximal inhibition of ATPase; for inhibition at 5 µM: read-out: % inhibition at 5 μM (or 10 μM if racemate) NM2A, 5 μM (10 μM if racemate); for inhibition at 5 µM / inhibition at 50 µM: ATPase activity; for inhibition at 50 µM: read-out: % inhibition at 50 μM (or 100 μM if racemate) NM2A, 50 μM (100 μM if racemate)
# Text: as §1
# [6] = biological target: recombinant human non-muscle myosin 2 NM2B (Homo sapiens, UniProt P35580); experiment: actomyosin steady state ATPase measurement, NM2B; format: biochemical
# Text: as §1
# [7] = biological target: recombinant human non-muscle myosin 2 NM2C (Homo sapiens, UniProt Q7Z406); experiment: actomyosin steady state ATPase measurement, NM2C; format: biochemical; conditions: for IC50: concentration required for semi-maximal inhibition of ATPase; for inhibition at 5 µM: read-out: % inhibition at 5 μM (or 10 μM if racemate) NM2C, 5 μM (10 μM if racemate); for inhibition at 5 µM / inhibition at 50 µM: ATPase activity; for inhibition at 50 µM: read-out: % inhibition at 50 μM (or 100 μM if racemate) NM2C, 50 μM (100 μM if racemate)
# Text: as §1
# [8] = biological target: T1, isolated porcine cardiac ventricular myocardium (cardiac) (Sus scrofa, UniProt P79293); experiment: actomyosin steady state ATPase measurement, cardiac myosin; format: biochemical; conditions: for IC50: concentration required for semi-maximal inhibition of ATPase; for % inhibition. complete cardiac: maximum value of inhibition of ATPase activity; for inhibition at 5 µM: read-out: % inhibition at 5 μM (or 10 μM if racemate) cardiac, 5 μM (10 μM if racemate); for inhibition at 5 µM / inhibition at 50 µM: ATPase activity; for inhibition at 50 µM: read-out: % inhibition at 50 μM (or 100 μM if racemate) cardiac, 50 μM (100 μM if racemate)
# T1 construct: isolated porcine cardiac ventricular myocardium (cardiac); from tissue; host or cells: porcine cardiac ventricle
# Text: as §1
# [9] = system: isolated rabbit skeletal muscle myosin (skeletal); experiment: actomyosin steady state ATPase measurement, skeletal muscle myosin; format: biochemical; conditions: for % inhibition at 5 μM (or 10 μM if racemate) Skeletal: 5 μM (10 μM if racemate); for % inhibition at 5 μM (or 10 μM if racemate) Skeletal / % inhibition at 50 μM (or 100 μM if racemate) Skeletal: ATPase activity; for % inhibition at 50 μM (or 100 μM if racemate) Skeletal: 50 μM (100 μM if racemate); for IC50: concentration required for semi-maximal inhibition of ATPase; for % inhibition. complete Skeletal: maximum value of inhibition of ATPase activity
# Text: as §1
# [10] = biological target: isolated smooth muscle myosin (UniProt P10587); format: biochemical, chamois; conditions: concentration required for semi-maximal inhibition of ATPase
# Text: (ii) the concentration required for semi-maximal inhibition.
# [11] = system: M. quadriceps femoris; experiment: isometric force measurement of live, anesthetized rat M. quadriceps femoris due to electrical stimulation; format: in vivo
# Method: (§2) The maximum isometric force induced by the stimulation was determined after intraperitoneal injection of some of the compounds of the invention. During the measurement, the following parameters of live anesthetized rats were continuously monitored: • a) heart rate • b) blood flow in the neck arteries • c) respiratory frequency • d) blood oxygen saturation ratio Results from live anesthetized rats are summarized in the table below.
# [12] = vital parameters of live anesthetized rats monitored during isometric force measurement; format: in vivo; conditions: anesthetized rat; for Maximum change of vital parameters (%) blood flow: neck arteries
# Method: as §2, with “ratio” for “ratio Results from live anesthetized rats are summarized in the table below.”
# [13] = solubility in PBS in the presence of 1% DMSO; format: physicochemical; conditions: phosphate buffered saline with 1% DMSO, aqueous buffer, kinetic from dmso stock, PBS w/o Mg, Ca
# [14] = biological target: isolated smooth muscle myosin (UniProt P10587); format: biochemical, chamois; conditions: for % inhibition at 5 μM (or 10 μM if racemate) Smooth: 5 μM (10 μM if racemate); for % inhibition at 5 μM (or 10 μM if racemate) Smooth / % inhibition at 50 μM (or 100 μM if racemate) Smooth: ATPase activity; for % inhibition at 50 μM (or 100 μM if racemate) Smooth: 50 μM (100 μM if racemate); for % inhibition. complete Smooth: maximum value of inhibition of ATPase activity
# [15] = system: myosin 1, myosin 5, and myosin 10; conditions: cited from earlier work
# [16] = maximum value of inhibition of ATPase activity
# T1 sequence (P79293 whole entry): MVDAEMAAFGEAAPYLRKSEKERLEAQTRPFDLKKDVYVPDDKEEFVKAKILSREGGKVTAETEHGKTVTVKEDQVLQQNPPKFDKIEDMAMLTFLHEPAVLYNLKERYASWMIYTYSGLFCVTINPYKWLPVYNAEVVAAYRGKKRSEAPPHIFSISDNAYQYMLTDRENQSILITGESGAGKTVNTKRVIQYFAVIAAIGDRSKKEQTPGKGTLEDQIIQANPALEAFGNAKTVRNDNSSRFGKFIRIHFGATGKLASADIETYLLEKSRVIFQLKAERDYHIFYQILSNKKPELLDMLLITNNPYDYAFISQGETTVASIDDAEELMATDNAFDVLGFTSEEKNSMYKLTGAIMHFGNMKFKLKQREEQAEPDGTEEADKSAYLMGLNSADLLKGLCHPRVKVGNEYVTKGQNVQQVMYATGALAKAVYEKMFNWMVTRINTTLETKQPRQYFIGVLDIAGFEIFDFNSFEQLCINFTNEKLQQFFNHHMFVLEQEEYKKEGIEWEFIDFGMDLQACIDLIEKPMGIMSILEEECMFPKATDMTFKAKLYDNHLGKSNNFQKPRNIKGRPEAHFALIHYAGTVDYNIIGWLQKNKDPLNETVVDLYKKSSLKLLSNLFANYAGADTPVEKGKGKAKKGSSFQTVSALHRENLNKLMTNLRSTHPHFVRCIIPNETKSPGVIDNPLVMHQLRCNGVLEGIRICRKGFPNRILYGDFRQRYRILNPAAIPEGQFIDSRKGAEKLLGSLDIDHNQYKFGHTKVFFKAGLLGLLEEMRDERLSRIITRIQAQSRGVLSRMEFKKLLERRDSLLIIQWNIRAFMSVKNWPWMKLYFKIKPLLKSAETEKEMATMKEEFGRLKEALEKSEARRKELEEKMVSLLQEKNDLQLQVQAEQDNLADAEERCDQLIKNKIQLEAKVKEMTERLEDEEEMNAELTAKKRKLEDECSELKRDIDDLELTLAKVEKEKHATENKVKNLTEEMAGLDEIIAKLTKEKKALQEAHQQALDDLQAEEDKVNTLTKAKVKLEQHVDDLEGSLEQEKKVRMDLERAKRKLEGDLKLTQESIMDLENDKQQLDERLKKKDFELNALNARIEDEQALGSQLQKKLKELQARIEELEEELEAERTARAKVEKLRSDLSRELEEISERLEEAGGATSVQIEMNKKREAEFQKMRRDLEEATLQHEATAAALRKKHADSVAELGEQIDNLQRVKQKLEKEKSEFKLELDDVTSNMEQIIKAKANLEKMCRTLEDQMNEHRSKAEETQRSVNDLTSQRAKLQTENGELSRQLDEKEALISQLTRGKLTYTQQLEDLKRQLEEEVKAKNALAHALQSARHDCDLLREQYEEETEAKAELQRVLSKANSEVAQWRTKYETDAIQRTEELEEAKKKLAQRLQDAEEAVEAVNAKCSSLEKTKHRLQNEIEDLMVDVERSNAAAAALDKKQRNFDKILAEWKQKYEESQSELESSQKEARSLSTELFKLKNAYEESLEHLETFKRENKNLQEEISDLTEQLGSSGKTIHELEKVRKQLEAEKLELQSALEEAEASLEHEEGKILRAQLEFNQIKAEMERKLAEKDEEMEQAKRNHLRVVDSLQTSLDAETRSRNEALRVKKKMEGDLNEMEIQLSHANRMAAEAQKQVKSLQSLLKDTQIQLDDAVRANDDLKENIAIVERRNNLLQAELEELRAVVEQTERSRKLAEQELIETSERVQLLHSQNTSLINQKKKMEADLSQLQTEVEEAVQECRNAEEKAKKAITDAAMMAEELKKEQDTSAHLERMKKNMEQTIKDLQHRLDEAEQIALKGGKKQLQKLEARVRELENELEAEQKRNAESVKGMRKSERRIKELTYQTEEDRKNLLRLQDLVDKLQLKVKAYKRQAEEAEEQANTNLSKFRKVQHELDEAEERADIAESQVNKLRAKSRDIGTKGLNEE
# Sequence of recombinant human non-muscle myosin 2 NM2B (P35580 whole entry): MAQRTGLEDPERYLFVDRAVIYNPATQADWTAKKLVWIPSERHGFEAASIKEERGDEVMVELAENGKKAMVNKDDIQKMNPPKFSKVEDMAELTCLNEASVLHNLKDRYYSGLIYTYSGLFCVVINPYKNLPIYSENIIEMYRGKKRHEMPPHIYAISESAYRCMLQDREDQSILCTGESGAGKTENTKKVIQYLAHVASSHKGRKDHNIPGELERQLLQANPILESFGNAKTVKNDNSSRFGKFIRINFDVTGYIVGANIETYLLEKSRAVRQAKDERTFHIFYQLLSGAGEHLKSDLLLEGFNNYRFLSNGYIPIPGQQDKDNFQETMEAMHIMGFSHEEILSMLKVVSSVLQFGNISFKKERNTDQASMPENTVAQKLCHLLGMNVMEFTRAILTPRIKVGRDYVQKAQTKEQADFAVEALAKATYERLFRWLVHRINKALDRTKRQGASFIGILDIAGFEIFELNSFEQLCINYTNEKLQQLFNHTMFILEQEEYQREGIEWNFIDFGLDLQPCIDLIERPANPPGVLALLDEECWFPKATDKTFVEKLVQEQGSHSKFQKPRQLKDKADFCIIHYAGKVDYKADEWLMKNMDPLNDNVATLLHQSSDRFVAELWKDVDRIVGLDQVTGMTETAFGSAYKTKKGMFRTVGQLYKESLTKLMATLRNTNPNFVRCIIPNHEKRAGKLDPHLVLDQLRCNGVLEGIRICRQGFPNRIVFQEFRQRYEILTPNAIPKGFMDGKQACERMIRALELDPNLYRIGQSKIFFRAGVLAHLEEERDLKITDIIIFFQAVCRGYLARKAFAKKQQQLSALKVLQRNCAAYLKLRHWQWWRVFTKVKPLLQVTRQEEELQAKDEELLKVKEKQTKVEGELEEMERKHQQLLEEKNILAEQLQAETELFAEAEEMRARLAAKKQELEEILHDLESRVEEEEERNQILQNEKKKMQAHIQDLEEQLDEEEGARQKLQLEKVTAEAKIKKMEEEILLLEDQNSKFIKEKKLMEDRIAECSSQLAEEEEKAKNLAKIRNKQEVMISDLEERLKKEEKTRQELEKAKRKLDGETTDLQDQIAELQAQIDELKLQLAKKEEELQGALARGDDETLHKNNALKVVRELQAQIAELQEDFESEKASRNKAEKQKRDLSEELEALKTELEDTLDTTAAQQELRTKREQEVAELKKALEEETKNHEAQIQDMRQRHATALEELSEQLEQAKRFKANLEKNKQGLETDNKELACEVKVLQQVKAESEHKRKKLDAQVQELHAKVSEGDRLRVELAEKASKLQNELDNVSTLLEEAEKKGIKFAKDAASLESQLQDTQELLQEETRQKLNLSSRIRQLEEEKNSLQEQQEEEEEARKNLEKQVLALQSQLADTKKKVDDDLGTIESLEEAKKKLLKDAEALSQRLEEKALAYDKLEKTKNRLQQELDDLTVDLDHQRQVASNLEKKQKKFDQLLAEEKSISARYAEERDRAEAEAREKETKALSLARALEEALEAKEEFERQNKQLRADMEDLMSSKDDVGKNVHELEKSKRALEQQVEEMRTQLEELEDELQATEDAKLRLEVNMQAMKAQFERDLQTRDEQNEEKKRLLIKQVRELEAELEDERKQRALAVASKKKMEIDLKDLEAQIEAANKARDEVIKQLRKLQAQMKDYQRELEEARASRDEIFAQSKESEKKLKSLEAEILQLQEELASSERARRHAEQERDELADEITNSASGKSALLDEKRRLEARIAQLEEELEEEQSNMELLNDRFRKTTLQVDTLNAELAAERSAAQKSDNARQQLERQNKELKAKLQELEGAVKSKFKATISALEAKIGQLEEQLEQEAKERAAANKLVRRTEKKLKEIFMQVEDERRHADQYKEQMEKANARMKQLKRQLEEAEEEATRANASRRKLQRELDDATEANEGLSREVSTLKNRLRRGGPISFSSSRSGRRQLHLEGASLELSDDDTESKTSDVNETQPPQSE
compound,measurement,setting,value
"CC(=O)/C(C)=N/O [BDM, 2,3-butanedione monoxime]",Binding strength,[1],~5 mM
same,IC50,"[2]; skeletal muscle myosin 2, binds weakly",~5000 µM
"Cc1ccc(S(=O)(=O)NCc2ccccc2)cc1 [BTS, N-Benzyl-p-toluenesulfonamide]",Binding strength,[1],~0.005 mM
same,"inhibits fast muscle skeletal myosin-2 times more stronger than slow skeletal muscle myosin-2, myocardial myosin-2 or non-muscle myosin 2",[2]; selectivity among myosin 2 isoforms,100 times
same,inhibition of platelet myosin 2,[3],does not inhibit
"O=C1c2ccncc2N=C2N(c3ccccc3)CCC12O (stereo not drawn) [Compound 174, 3a-Hydroxy-1-phenyl-1H,2H,3H,3aH,4H-pyrrolo[2,3-b]1,7-naphthyridin-4-one]",IC50,[4],10 µM
same,Inhibition (%) Dicty,"[4]; maximum inhibition, compounds in IC50 range 1-11 μM",20%
same,% inhibition. complete Dicty,[4]; [16],20%
same,inhibition at 5 µM,[4],7%
same,inhibition at 50 µM,[4],17%
same,IC50,[5],1 µM
same,inhibition at 5 µM,[5],12%
same,inhibition at 50 µM,[5],9%
same,IC50,[6]; concentration required for semi-maximal inhibition of ATPase,15 µM
same,% inhibition. complete NM2B,[6]; [16],12%
same,inhibition at 5 µM,"[6]; read-out: % inhibition at 5 μM (or 10 μM if racemate) NM2B, 5 μM (10 μM if racemate), ATPase activity",2%
same,inhibition at 50 µM,"[6]; read-out: % inhibition at 50 μM (or 100 μM if racemate) NM2B, 50 μM (100 μM if racemate), ATPase activity",9%
same,IC50,[7],2 µM
same,inhibition at 5 µM,[7],7%
same,inhibition at 50 µM,[7],9%
same,IC50,[8],> 100 µM
same,% inhibition. complete cardiac,[8],100%
same,inhibition at 5 µM,[8],2%
same,inhibition at 50 µM,[8],15%
same,% inhibition at 5 μM (or 10 μM if racemate) Skeletal,[9],25%
same,% inhibition at 50 μM (or 100 μM if racemate) Skeletal,[9],77%
same,IC50,[9],17 µM
same,% inhibition. complete Skeletal,[9],100%
same,IC50,[10],> 100 µM
same,Maximum change in isometric force at rear leg (%),[11]; 6 mg i.p.,25%
same,Maximum change of vital parameters (%) heart rate,[12]; 6 mg i.p.,3%
same,Maximum change of vital parameters (%) oxygen saturation,[12]; 6 mg i.p.,−19%
same,Maximum change of vital parameters (%) respiratory frequency,[12]; 6 mg i.p.,−20%
same,Maximum change of vital parameters (%) blood flow,[12]; 6 mg i.p.,4%
same,solubility,[13],≥ 1000 µM
same,% inhibition at 5 μM (or 10 μM if racemate) Smooth,[14],1%
same,% inhibition at 50 μM (or 100 μM if racemate) Smooth,[14],6%
same,% inhibition. complete Smooth,[14],51%
"Cc1cc2c(s1)N=C1N(c3ccc(N4CCOCC4)cc3)CCC1(O)C2=O (stereo not drawn) [Compound 220, 9-Hydroxy-5-methyl-12-[4-(morpholin-4-yl)phenyl]-4-thia-2,12-diazatricyclo[7.3.0.0^3,7]dodeca-1,3(7),5-trien-8-one]",IC50,[4],> 100 µM
same,inhibition at 5 µM,[4],0%
same,inhibition at 50 µM,[4],0%
same,IC50,[5],0.93 µM
same,% inhibition. complete NM2A,[5]; [16],20%
same,inhibition at 5 µM,[5],16%
same,inhibition at 50 µM,[5],22%
same,IC50,[7],1.8 µM
same,Inhibition (%) NM2C,"[7]; maximum inhibition, compounds in IC50 range 1-5 μM",24%
same,% inhibition. complete NM2C,[7]; [16],24%
same,inhibition at 5 µM,[7],19%
same,inhibition at 50 µM,[7],21%
same,IC50,[8],5.6 µM
same,Inhibition (%) cardiac,"[8]; maximum inhibition, compounds in IC50 range 3-6 μM",39%
same,% inhibition. complete cardiac,[8],39%
same,inhibition at 5 µM,[8],17%
same,inhibition at 50 µM,[8],37%
same,% inhibition at 5 μM (or 10 μM if racemate) Skeletal,[9],86%
same,% inhibition at 50 μM (or 100 μM if racemate) Skeletal,[9],94%
same,IC50,[9],0.49 µM
same,% inhibition. complete Skeletal,[9],96%
same,IC50,[10],2.3 µM
same,Maximum change in isometric force at rear leg (%),[11]; 1 mg i.p.,19%
same,Maximum change in isometric force at rear leg (%),[11]; 3 mg i.p.,23%
same,Maximum change in isometric force at rear leg (%),[11]; 6 mg i.p.,42%
same,Maximum change of vital parameters (%) heart rate,[12]; 1 mg i.p.,1%
same,Maximum change of vital parameters (%) oxygen saturation,[12]; 1 mg i.p.,−1%
same,Maximum change of vital parameters (%) respiratory frequency,[12]; 1 mg i.p.,−13%
same,Maximum change of vital parameters (%) blood flow,[12]; 1 mg i.p.,8%
same,Maximum change of vital parameters (%) heart rate,[12]; 3 mg i.p.,8%
same,Maximum change of vital parameters (%) oxygen saturation,[12]; 3 mg i.p.,−17%
same,Maximum change of vital parameters (%) respiratory frequency,[12]; 3 mg i.p.,−21%
same,Maximum change of vital parameters (%) blood flow,[12]; 3 mg i.p.,19%
same,Maximum change of vital parameters (%) heart rate,[12]; 6 mg i.p.,22%
same,Maximum change of vital parameters (%) oxygen saturation,[12]; 6 mg i.p.,−28%
same,Maximum change of vital parameters (%) respiratory frequency,[12]; 6 mg i.p.,−22%
same,Maximum change of vital parameters (%) blood flow,[12]; 6 mg i.p.,−1%
same,Maximum change of vital parameters (%) heart rate,[12]; 10 mg i.p.,3%
same,Maximum change of vital parameters (%) oxygen saturation,[12]; 10 mg i.p.,−41%
same,Maximum change of vital parameters (%) respiratory frequency,[12]; 10 mg i.p.,−30%
same,Maximum change of vital parameters (%) blood flow,[12]; 10 mg i.p.,−3%
same,solubility,[13],710 µM
same,% inhibition at 5 μM (or 10 μM if racemate) Smooth,[14],34%
same,% inhibition at 50 μM (or 100 μM if racemate) Smooth,[14],54%
same,% inhibition. complete Smooth,[14],51%
Cc1ccc2c(c1)C(=O)[C@]1(O)CCN(c3ccccc3)C1=N2 [blebbistatin],"inhibition of myosin 1, myosin 5, and myosin 10",[15],does not inhibit
